By LC50 is commonly meant the concentration that kills 50% of the test population. As a reminder, the IC50 is the midpoint of a concentration-inhibition curve. One may read the Ki as the equilibrium dissociation constant of an inhibitor or competing ligand from its target. By inhibition is commonly meant the percentage by which the read-out fell short of the control.

Read-outs that look alike come from different tables or passages of the source.

Series [1] concerns T. cruzi bloodstream trypomastigotes INC-5 strain. In words: microbe, parasite or virus in culture. The series is classed as cell-based. To be noted: for CC50: bloodstream trypomastigotes, 24 h at 4 °C (called IC50 in abstract), read-out: LC50 INC-5 Strain. Here is the method: (§1) In this study, two strains of T. cruzi isolated in Mexico were used. T. cruzi NINOA strain (MHOM/MX/1994/NINOA) was obtained from a patient with acute Chagas disease and T. cruzi INC-5 (MHOM/MX/1994/INC5) was isolated from a patient in the chronic phase of the disease. Epimastigotes were cultured in vitro in liver infusion-tryptose (LIT) medium supplemented with 10% heat inactivated fetal bovine serum (FBS) (Gibco) and 100 U/mL penicillin-streptomycin (In vitro S.A.), and incubated at 27 °C. CD1 mice, aged 6–8 weeks, were infected with T. cruzi to obtain bloodstream trypomastigote samples. Animal experiments were performed according to Norma Oficial Mexicana (NOM-062-Z00-1999) published on 22 August, 2009.
(§2) CD1 female mice 6–8 weeks old were infected with T. cruzi bloodstream trypomastigotes of the INC-5 and NINOA strains. The course of infection continued for 4–6 weeks. At the peak of parasitemia blood was obtained by cardiac puncture using sodium heparin as an anticoagulant. The blood was adjusted to 1 × 10^6 bloodstream trypomastigotes/mL.
(§3) In each well of the 96-well plate, 195 μL of infected blood and 5 μL of quinoxaline 1,4-di-N-oxide derivatives or reference drug dilutions were seeded, with each well reaching a final volume of 200 µL. Each assay was performed in triplicate. Initially, all compounds were tested at 50 μg/mL. […] As a negative control of lysis, wells with untreated blood trypomastigotes were used, and as a positive control, wells with the reference drugs were used. The microplates were incubated at 4 °C for 24 h. Bloodstream trypomastigotes were quantified by the method of Brener-Pizzi, 5 μL of blood were placed on a slide and covered with a coverslip 13 × 13 mm. The mobile protozoa were counted in 15 fields at 40× magnification using an optical microscope. The percentage lysis was determined by comparing the remaining trypomastigotes against the negative control. LC50 was determined with the Probit statistical tool. The results were later converted to micromolar units.

Series [2] relates to T. cruzi bloodstream trypomastigotes NINOA strain. In words: microbe, parasite or virus in culture. It counts as cell-based. To be noted: Trypanosoma cruzi. On the procedure: as §1, §2, §3
Series [3] relates to T. cruzi INC-5 epimastigotes. In words: Viability (MTT) assay on T. cruzi epimastigotes. It counts as cell-based, Trypanosoma cruzi. To be noted: 24 h, mean and SD of triplicate. Here is the method:
In this study, two strains of T. cruzi isolated in Mexico were used. […] Epimastigotes were cultured in vitro in liver infusion-tryptose (LIT) medium supplemented with 10% heat inactivated fetal bovine serum (FBS) (Gibco) and 100 U/mL penicillin-streptomycin (In vitro S.A.), and incubated at 27 °C. CD1 mice, aged 6–8 weeks, were infected with T. cruzi to obtain bloodstream trypomastigote samples.
Viability assays of T. cruzi epimastigotes using 3-(4,5-dimethylthiazol-2-yl)-2,5-diphenyltetrazolium bromide (MTT) were performed. Briefly, the parasites were harvested during the exponential growth phase for a period of five days. In a 96-well microplate 1x10^6 epimastigotes were deposited in brain-heart infusion (BHI) medium supplemented with 10% FBS and 100 U/mL antibiotic-antifungal mixture (Gibco). […] Each well reached a final volume of 100 µL. Each condition was assessed in triplicate. The microplate was incubated for 24 h at 27 °C in darkness. Afterwards, 10 μL of a 5 mg/mL MTT solution was added and the plate was incubated for 20 h at 27 °C. Then 200 μL of 10% dodecyl sulfate (SDS)/0.1% HCl solution was added to dissolve formazan salts; the plate was incubated an additional 4 h. Finally, the plate was read at 570 nm in a spectrophotometer (Multiskan EX Thermo Electron, Taipei, Taiwan). The amount of viable cells was proportional to the amount of formazan produced. […] Later the results were converted to micromolar units. […] As a […] control, parasites were incubated only in culture medium with a 1% DMSO concentration, corresponding to the highest sample dilution of DMSO [34, 35, 36].

The next series has as its target T1, recombinant T. cruzi TR (Trypanosoma cruzi, UniProt P28593).
T1 construct: made in house
The series can be described thus: TR enzyme inhibition (NADPH consumption at 340 nm). The series is classed as biochemical. The note with it: for inhibition at 5 µM: inhibitor 5 µM; for inhibition at 10 µM: inhibitor 10 µM; for inhibition at 20 µM: inhibitor 20 µM; for inhibition at 40 µM: inhibitor 40 µM; for inhibition at 60 µM: inhibitor 60 µM; for inhibition at 80 µM: inhibitor 80 µM, T-085 precipitates in the assay at 80 µM. On the procedure: Trypanothione disulfide (TS2) and recombinant T. cruzi TR were prepared following published procedures. Recombinant human glutathione reductase (GR) was kindly provided by Dr. Heiner Schirmer, Heidelberg Germany. Stock solutions (5 mM) of the inhibitors were prepared in DMSO. The kinetic analyses were conducted using a Jasco V650 spectrophotometer. All enzymatic tests were performed in polystyrene optical cuvettes (10 × 4 × 45 mm). TR activity was measured at 25 °C in a total volume of 1 mL TR assay buffer (40 mM HEPES, 1 mM EDTA, pH 7.5 [47]) containing 100 μM NADPH and 5–10 mU enzyme in the absence and presence of the inhibitor. Each assay contained a total of 5% DMSO. The reaction was started by adding TS2 and NADPH consumption was followed at 340 nm.
Five compound concentrations were used ranging from 100–5 μM. All measurements were performed twice in three independent series. Enzyme activity was plotted versus increasing inhibitor concentrations. IC50 values were calculated using the four-parameter equation model 205 and the option “unlock” from the XLfit add-in (IDBS, Guildford, United Kingdom) for Excel (Microsoft Corporation, Redmond, WA, USA).
The type of inhibition and the inhibitor constants were derived from Lineweaver-Burk plot. The activity of TR was measured in the absence and presence of two to three constant concentrations of inhibitor varying the concentration of TS2 (20, 40, 60, 100 and 200 µM). The inhibitory constant Ki was calculated from the direct plot using nonlinear least-squares data fitting in Excel spreadsheet.

The mark [4] stands for this setting: 40 µM TS2, read-out: % Inhibition of TR at 40 µM [TS2].
[5] abbreviates: 100 µM TS2, read-out: % Inhibition of TR at 100 µM [TS2].

T1 sequence (P28593 whole entry): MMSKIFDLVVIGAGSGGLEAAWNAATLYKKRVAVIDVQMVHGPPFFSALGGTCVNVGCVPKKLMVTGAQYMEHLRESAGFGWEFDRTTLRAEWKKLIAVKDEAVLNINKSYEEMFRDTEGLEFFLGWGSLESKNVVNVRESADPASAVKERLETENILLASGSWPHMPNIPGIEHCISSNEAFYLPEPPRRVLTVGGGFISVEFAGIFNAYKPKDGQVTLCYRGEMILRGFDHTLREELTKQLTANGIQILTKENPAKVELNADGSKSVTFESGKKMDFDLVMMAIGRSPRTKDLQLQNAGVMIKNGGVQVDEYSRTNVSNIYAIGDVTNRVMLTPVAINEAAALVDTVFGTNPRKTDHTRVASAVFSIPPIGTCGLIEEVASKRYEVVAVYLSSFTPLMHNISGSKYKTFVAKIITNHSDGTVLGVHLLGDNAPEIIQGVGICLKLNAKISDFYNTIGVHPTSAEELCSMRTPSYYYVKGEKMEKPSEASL

Take `CC(C)OC(=O)c1ccc2c(c1)[n+]([O-])c(C(=O)C(C)C)c(C(F)(F)F)[n+]2[O-]` [Compound T-085, Isopropyl 2-isobutyryl-3-trifluoromethylquinoxaline-7-carboxylate 1,4-di-N-oxide]: the CC50 came to 73 µM in series [1] (Trypanosoma cruzi, 24 h) and 73.1 ± 12.4 µM in series [1]. Further, the killing at 50 µg/mL came out at 76.2 ± 1.2% in series [1] (Trypanosoma cruzi, 50 μg/mL, 24 h at 4 °C, infected mouse blood, read-out: % Lysis at 50 μg/mL INC-5 Strain) and 74.2 ± 6.4% in series [2] (50 μg/mL, 24 h at 4 °C, infected mouse blood, read-out: % Lysis at 50 μg/mL NINOA Strain). In series [2] (24 h), this molecule gave an LC50 of 59.9 ± 7.9 µM. Also, the IC50 was 2.42 ± 0.5 µM in series [3]; below 2.5 µM in series [3] (Trypanosoma cruzi); 50 µM at recombinant T. cruzi TR (inhibitor 5-60 μM, read-out: IC50 against TcTR). In addition, the type of inhibition result at recombinant T. cruzi TR (TcTR, Lineweaver-Burk plot) is reported as “non-competitive inhibitor”. The Ki at recombinant T. cruzi TR (TcTR, Lineweaver-Burk plot, inhibitor 15 and 50 µM, TS2 20-200 µM) came out at 35 µM. Also, the inhibition at 5 µM on recombinant T. cruzi TR (setting [4]) is 20.3%; on recombinant T. cruzi TR (setting [5]) it was 15.2%. The inhibition at 10 µM is 34.1% on recombinant T. cruzi TR (setting [4]) and 24.7% on recombinant T. cruzi TR (setting [5]). Besides, the inhibition at 20 µM at recombinant T. cruzi TR (setting [4]) stood at 45.7%; at recombinant T. cruzi TR (setting [5]), 36.1%. The inhibition at 40 µM amounted to 55.1% at recombinant T. cruzi TR (setting [4]) and 48.1% on recombinant T. cruzi TR (setting [5]). Also, the inhibition at 60 µM at recombinant T. cruzi TR (the highest concentration that could be measured, 100 μM or 40 μM TS2, read-out: % inhibition of TR) was 60%; on recombinant T. cruzi TR (setting [4]) it was 60.9%; at recombinant T. cruzi TR (setting [5]) it was 60.1%. Moreover, the inhibition at 80 µM turned out to be 44% on recombinant T. cruzi TR (setting [4]) and 33% at recombinant T. cruzi TR (setting [5]).

The values are drawn from paper PMC6155662, “Trypanocidal Activity of Quinoxaline 1,4 Di-N-oxide Derivatives as Trypanothione Reductase Inhibitors” (Molecules : A Journal of Synthetic Chemistry and Natural …, 2017).
